Where a name gives a salt, the structure may show the parent alone.
Key:
mice [1] = assay: 2-phenyl-1,4-benzoquinone-induced writhing test in mice (PQW, analgesia); format: in vivo; conditions: Mus musculus, sc, read-out: PQW (% decrease)
Excerpt: Compounds I and II of the present invention are useful as analgesic agents due to their ability to alleviate pain in mammals. […] Exptl. Biol. Med., 95, 729 (1957)].

mice [2] = assay: supramaximal electroshock assay (SES, anticonvulsant); format: in vivo; conditions: Mus musculus, ip, male mice, at peak activity time
Protocol: Compounds I and II of the present invention are useful as anticonvulsant agents. […] Groups of male mice (18-30 grams) are used. Drugs are prepared using distilled water and if insoluble, a surfactant is added. Control animals receive vehicle. Drugs are routinely administered intraperitoneally. The dosage volume is 10 ml/kg.
The animal's eyes are placed across the output terminals of an A.C. shocker that delivers 206 volts rms for 300 milliseconds. Electrode paste coats the animal's eyes at the point of contact with the terminals.
Protection is expressed as normalized percent inhibition relative to vehicle control. [formula]
A time response is carried out using 6 animals per group. Animals are tested at 30, 60 and 120 minutes postdrug. Additional time periods are tested if indicated by previous tests.
When the peak activity time has been determined, a dose response is initiated, using 10 animals per group at that time period. The ED50 and 95% confidence interval are calculated by computerized probit analysis.

rats = assay: Geller-conflict paradigm with rats (anxiolytic); format: in vivo; conditions: i.p., CRF-conflict responding versus previous day's control trial
Excerpt: Compounds I and II of the present invention are useful as anxiolytic agents. […] See Geller, Irving and Seifter, Psychopharmacologia Vol. 1, 482-492 (1962). Male rats are used as test subjects. They are housed individually and food and water are available ad libitum until they are 300 to 400 grams prior to the start of training. Subsequently they are food deprived until their body weight is reduced to approximately 80% of original and it is maintained at this level by a restricted food diet.
The programming and test equipment consists of solid state devices, shockers and cages within sound-attenuated environmental enclosures. The data is recorded on both solid state print-out counters and cumulative recorders. The cages are equipped with a houselight, a single-lever, cue-lights, a liquid dipper, a speaker and a grid-floor connected to a shocker. Sweetened condensed milk delivered by the liquid-dipper serve as the positive reinforcement for all subjects.
The subjects are trained to lever-press for the milk reward in two distinct response-reward sections. In the anxiety or "conflict" segment, signaled by onset of both tone and cue-lights, a dipper of milk is delivered in response to each lever-press (CRF schedule of reinforcement). However lever presses during this period are also accompanied by a 40 m sec pulse of aversive footshock through the grid-floor. This creates a "conflict between (1) easy access to milk reward and (2) the simultaneous presentation of a painful foot-shock. This "conflict" period is 3 minutes in duration.
During the other segment of this paradigm, the lever presses produces a dipper of milk only at variable intervals of time from 60 to 210 seconds with an average reward of once per 2 minutes (VI-2 min.). No shocks are ever administered during this VI phase of testing which is 15 minutes in duration.
The test procedure consists of four 15 minute (non-shock) VI segments where reinforcement was available on a limited basis. Each VI period is followed by a 3 minute "CRF"-conflict phase when reinforcement is constantly available but always accompanied by an aversive foot-shock. The shock-level is titrated for each subject to reduce the CRF responding to a total of less than 10 lever-presses during the entire test. The rats are tested four days a week. Drugs are administered on the third day and the performance is compared to the previous days control trial. The VI responses are used to evaluate any general debilitating drug effects, while the CRF responses are used to evaluate any "anti-anxiety" effects as indicated by increased responding during the "CRF-conflict" period.
All test compounds are administered by intraperitoneal injection in volumes of 10 cc/kg and the pretreat interval is usually one-half hour.

[3] = target: benzodiazepine recognition sites; assay: benzodiazepine (Bz) binding, rat cerebral cortex membrane preparation; conditions: rat cortex membranes, 2 nM radioactive benzodiazepine, pH 6.9, 20 minutes at 0-4° C.
Excerpt: This assay is used to determine potential anxiolytic or anticonvulsant activity via direct interaction with benzodiazepine recognition sites in a membrane preparation obtained from rat brain.
Benzodiazepine is a widely prescribed phychoactive agent. It has various pharmacological properties, including anti-anxiety, anticonvulsant, muscle relaxant and hypnotic effects. The relationships between the pharmacological activities of this compound and the GABA receptor-chlorideionophore complex have been studied in the past. The values of IC50 listed in Table II were determined in the following manner. See Squires and Braestrup, "Benzodiazepine Receptors in Rat Brain", Nature, 266, 732-734 (1977). […]
a. 78.1 g of Tris-HCl q.s. to 1 liter b. 60.6 g of Tris-base q.s to 1 liter c. Adjust pH of Tris HCl to 6.9 at 25° C. by adding Tris base to obtain 0.5M Tris buffer, pH 6.9. d. Make a 1:10 dilution with distilled H2 O to obtain 0.05M Tris buffer, pH 6.9 2. 0.32M sucrose: 21.9 g of sucrose q.s. to 200 ml
3. Radioactive benzodiazepine: this marker compound is made up to a concentration of 80 nM and 50 μl of the solution is added to each tube, which yields a final concentration of 2 nM in the assay.
4. Test Compounds: 1 mM stock solution is made up in a suitable vehicle and serially diluted, such that the final concentration in the assay ranges from 10^-5 to 10^-8 M.
Male Wistar rats are decapitated and the brain rapidly removed. The cerebral cortices are removed, weighed and homogenized with a homogenizer in 20 volumes of ice-cold 0.32M sucrose. This homogenate is contrifuged at 1,000 g for 10 minutes, the pellet is discarded and the supernatant is recentrifuged at 30,000 g for 20 minutes. The resulting membrane pellet is resuspended in 40 volumes of 0.05M Tris buffer, pH 6.9.
1 ml 0.05M Tris buffer, pH 6.9
70 μl 0.5M Tris buffer, pH 6.9
50 μl radioactive benzodiazepine solution
20 μl vehicle or a solution containing an appropriate concentration of test drug 300 μl tissue suspension prepared above
A tube containing the […] listed above is incubated at 0°-4° C. in an ice bath. A 300 μl aliquot of the tissue suspension is added to the tube and the sample is then incubated for 20 minutes at 0°-4° C. and thereafter vacuum-filtered using a suitable filter. The filter is immediately rinsed with three 5 ml washes of ice-cold Tris buffer, pH 6.9. The radioactivity of the filter is counted in 10 ml of a counting cocktail. The value of the radioactive counting obtained for a sample containing a test drug is compared to the counting obtained for the sample not containing the test drug and the ratio between the two computed. The IC50 value for a given test drug is defined as that concentration of the test drug at which said ratio becomes 50% (IC stands for inhibitory concentration).

Structure (SMILES) | inhibition in vivo at 20 mg/kg (mice [1]) [%] | ED50 (mice [2]) [mg/kg] | Geller dose/CRF: CRF (rats; dose 40 mg/kg) | IC50 [3] [µM] | Geller dose/CRF: CRF (rats; dose 60 mg/kg)
CN(C(=O)CN)n1cccc1C(=O)c1ccccc1Cl [1-(N-Methyl-aminoacetamido)-2-(2-chlorobenzoyl)pyrrole hydrobromide] | 42 | – | – | – | –
Br.CN(C(=O)CN)n1cccc1C(=O)c1ccccc1F [1-(N-Methyl-aminoacetamido)-2-(2-fluorobenzoyl)pyrrole hydrobromide] | – | 8.2 | 11.2 | < 10 | –
NCC(=O)Nn1cccc1C(=O)c1ccccc1 [1-Aminoacetamido-2-benzoylpyrrole hydrochloride] | 23 | – | – | – | –
Br.CN1C(=O)CN=C(c2ccccc2)c2cccn21 [1-Methyl-5-phenyl-1H-pyrrolo[1,2-b][1,2,5]triazepin-2(3H)-one hydrobromide] | 26 | – | 22.6 | 0.34 | –
O=C(CNC(=O)OCc1ccccc1)Nn1cccc1C(=O)c1ccccc1 [1-[(Carbobenzyloxyamino)acetamido]-2-benzoylpyrrole] | 50 | – | – | – | –
CC(C)(C)OC(=O)NCC(=O)Nn1cccc1C(=O)c1ccccc1Cl [1-[(t-Butoxycarbonylamino)acetamido]-2-(2-chlorobenzoyl)pyrrole] | 49 | – | – | – | –
CC(C)(C)OC(=O)NCC(=O)Nn1cccc1C(=O)c1ccccc1F [1-[(t-Butoxycarbonylamino)acetamido]-2-(2-fluorobenzoyl)pyrrole] | 21 | – | – | – | –
CN(C(=O)CNC(=O)OC(C)(C)C)n1cccc1C(=O)c1ccccc1Cl [1-[N-Methyl-(t-butoxycarbonylamino)acetamido]-2-(2-chlorobenzoyl)pyrrole] | 47 | – | – | – | –
CN1C(=O)CN=C(c2ccccc2Cl)c2cccn21 [5-(2-Chlorophenyl)-1-methyl-1H-pyrrolo[1,2-b][1,2,5]triazepin-2(3H)-one] | 36 | 17.9 | 1.4 | 0.0227 | –
O=C1CN=C(c2ccccc2Cl)c2cccn2N1 [5-(2-Chlorophenyl)-1H-pyrrolo[1,2-b][1,2,5]triazepin-2(3H)-one] | – | – | – | 0.204 | 15
CN1C(=O)CN=C(c2ccccc2F)c2cccn21.Cl [5-(2-Fluorophenyl)-1-methyl-1H-pyrrolo[1,2-b][1,2,5]triazepin-2(3H)-one hydrochloride] | 27 | 43.6 | – | 0.0621 | –
O=C1CN=C(c2ccccc2F)c2cccn2N1 [5-(2-Fluorophenyl)-1H-pyrrolo[1,2-b][1,2,5]triazepin-2(3H)-one] | – | – | 2.4 | 0.586 | –
O=C1CN=C(c2ccccc2)c2cccn2N1 [5-Phenyl-1H-pyrrolo[1,2-b][1,2,5]triazepin-2(3H)-one] | 31 | – | – | 6.73 | –
CN1C(=O)CN=C(c2ccccc2F)c2ccc(Cl)n21.Cl [8-Chloro-5-(2-fluorophenyl)-1-methyl-1H-pyrrolo[1,2-b][1,2,5]triazepin-2(3H)-one hydrochloride] | 19 | 36.1 | – | 0.699 | –
Cc1ccc(C(=O)c2ccccc2F)n1NC(=O)CNCC(=O)Nn1c(C)ccc1C(=O)c1ccccc1F [Di-[(2-(2-fluorobenzoyl)-5-methyl-1H-pyrrol-1-yl)-2-acetamido]amine hydrochloride] | 68 | – | – | – | –
CN(C)CCNn1cccc1C(=O)c1ccccc1Cl [[2-(2-Chlorobenzoyl)-1H-pyrrol-1-yl]-2-(dimethylamino)ethylamine hydrobromide] | 72 | – | – | – | –
CCOC(=O)N(CCN(C)C)n1cccc1C(=O)c1ccccc1Cl [[2-(2-Chlorobenzoyl)-1H-pyrrol-1-yl]-2-[(dimethylamino)ethyl]carbamic acid, ethyl ester hydrobromide] | 41 | – | – | – | –
